Patent US7829591B2, “Flavanone compound and uses thereof” (Pokka Corporation, priority 2003, dated 2010)

Tests used:
β-carotene fading test = assay type: biochemical; conditions: for Antioxidant Activity (%) from β-carotene Fading Test: 20 μM in reaction liquid, 60° C. for 60 minutes, absorbance 470 nm, average ± SD of three runs; for antioxidant activity (in words): comparison from Table 1
Experimental: β-carotene will fade due to the reaction of linoleic acid peroxide, which is produced by the autoxidation of linoleic acid, with a double bond in β-carotene. This phenomenon was utilized so as to determine the antioxidant activity of each of Compounds 1 to 4 and the like. That is, first of all, 2 ml of a 200 mg/ml solution of Tween-40 in chloroform, 0.4 ml of a 100 mg/ml solution of linoleic acid in chloroform, and 3 ml of a 0.1 mg/ml solution of β-carotene in chloroform were mixed, and thereafter the solvent was removed by using a nitrogen gas. Subsequently, 100 ml of distilled water was added thereto, and adequately stirred to obtain an emulsion. To 3 ml of this emulsion, ethanol was added to completely dissolve the solute in the solvent. Thereafter, each of Compounds 1 to 4 was dissolved in ethanol so as to prepare a sample solution having a concentration of 1.2 mM. 50 μl of the sample solution was mixed with the above emulsion wherein the solute had been completely dissolved so as to prepare a reaction liquid (or a sample reaction liquid). Then the concentration of each of Compounds 1 to 4 in the reaction liquid was 20 μM. The reaction liquid was incubated at 60° C. for 60 minutes. Then the absorbance of each of the reaction liquid before the incubation and the reaction liquid after the incubation was determined at 470 nm. Furthermore, BHT, α-tocopherol, or eriodictyol was used in place of Compounds 1 to 4 so as to determine the absorbance of the reaction liquid before and after incubation according to a similar procedure to the above-mentioned one. In addition, as a control, a reaction liquid (or a control reaction liquid) wherein no sample solution was contained was prepared so as to determine the absorbance of the reaction liquid before and after incubation according to a similar procedure to the above-mentioned one. The antioxidant activity (%) of each of the materials was calculated using the following calculation formula 2. Incidentally, each of values shown in Table 1 is the average value and standard deviation of values obtained from three runs. (Antioxidant Activity)=[{(Fading Rate of Control)−(Fading Rate of Sample Solution)}/(Fading Rate of Control)]×100 Calculation Formula 2
It should be noted that in the calculation formula 2, “Fading Rate of Control” is the natural logarithm of a value which is acquired by dividing the absorbance of the control reaction liquid before incubation by the absorbance of the control reaction liquid after incubation and further by dividing the resultant value by 60; and “Fading Rate of Sample Solution” is the natural logarithm of a value which is acquired by dividing the absorbance of the sample reaction liquid before incubation by the absorbance of the sample reaction liquid after incubation and further by dividing the resultant value by 60.

[1] = tested on: breast cancer cells (MCF-7); assay: Breast cancer cell proliferation-inhibition test; assay type: cell-based; conditions: for Relative Value of Living Cells: 0.1 nM estradiol, Control 1 at 0 day = 1; for inhibiting effect on the proliferation of breast cancer cells (in words): 20 μM, compared with Control 1
Experimental: When breast cancer cells (MCF-7) are cultured, if estradiol (or 17β-estradiol) having a cell-proliferation accelerating action, is added thereto, the proliferation of breast cancer cells can be simply promoted in a short period. This phenomenon was utilized so as to examine the effect of each of Compounds 1 to 4 and the like on the proliferation inhibition of breast cancer cells. That is, first of all, each of Compounds 1 to 4 was diluted with dimethyl sulfoxide to prepare a sample solution. Thereafter, 2×10^3 of MCF-7 were inoculated in each well of a 96-well plate, and estradiol and the sample solution were added thereto after 4 hours. Estradiol was added to each compartment so that the final concentration of estradiol can be 0.1 nM, and the final concentration of the sample solution can be 0.2 μM, 2 μM, or 20 μM. After incubation for a predetermined period of time (three or five days), each of the media was replaced with a new medium, and an enzyme solution (Cell counting Kit-8: Wako) was added to the new medium in an amount of 10% of the new medium. After maintained the medium in an incubator at a temperature of 37° C. for two hours, the absorbance of the medium was determined at a wavelength of 450 nm (a reference wave length of 630 nm) by means of a spectrophotometer so as to quantify the number of living cells in each compartment.
As for the compartment whose incubation period is predetermined to be five days, on the third day of the incubation, the medium was replaced with a new medium, and thereafter, estradiol and a sample solution were added to the new medium, and the incubation was continued till fifth day. As for the compartment whose incubation period is predetermined to be 0 day, at four hours after the cells were inoculated, an enzyme solution was added to the medium. The medium was maintained in an incubator at a temperature of 37° C. for two hours, followed by determining the absorbance.
Instead of Compounds 1 to 4, eriodictyol was used to determine the absorbance according to a similar procedure to the above-mentioned one, and thus the number of living cells in each compartment was quantified. Furthermore, Control 1 to which neither estradiol nor a sample had been added was used to determine the absorbance according to a similar procedure to the above-mentioned one, and thus the number of living cells in each compartment was quantified, while Control 2 to which no sample had been added was used to determine the absorbance according to a similar procedure to the above-mentioned one, and thus the number of living cells in each compartment was quantified.
When it is assumed that the number of living cells of Control 1 as quantified after a zero-day incubation period is 1, the relative value of living cells as quantified in each of the runs mentioned above is shown in Table 2. Incidentally, each of values shown in Table 2 is the average value and standard deviation of values obtained from eight wells.

[2] = DPPH radical scavenging activity test; assay type: biochemical; conditions: for Radical Scavenging Activity (%) from DPPH Radical Scavenging Activity Test: 25 μM sample solution in ethanol, 1 h in dark, absorbance 517 nm, average ± SD of three runs
Experimental: DPPH (α,α-diphenyl-β-picrylhydradil) is a purple stable radical having a maximum absorption at 517 nm, which is converted into colorless hydrazine by gaining hydrogen. This color reaction was utilized so as to determine the radical scavenging activity of each of Compounds 1 to 4 and the like. That is, each of Compounds 1 to 4 was dissolved in ethanol to prepare 3 ml of a sample solution having a concentration of 25 μM. Thereafter, to each of the resultant sample solutions, 0.75 ml of a 0.5 mM DPPH solution (whose solvent was ethanol) was added and stirred, and reacted in a dark place for one hour, followed by the determination of an absorbance at 517 nm. Furthermore, in place of Compounds 1 to 4, BHT (butylated hydroxytoluene), α-tocopherol or eriodictyol was used so as to determine an absorbance according to a similar procedure to the above. Besides, instead of the above sample solutions, ethanol was used as a control so as to determine an absorbance according to a similar procedure to the above. Then the radical scavenging activity (%) of each of the materials was calculated using the following calculation formula 1. Incidentally, each of values shown in Table 1 is the average value and standard deviation of values obtained from three runs. (Radical Scavenging Activity)=[{(Absorbance of Control)−(Absorbance of Sample Solution)}/(Absorbance of Control)]×100 Calculation Formula 1

[3] = 0.2 μM sample, after 3-days incubation
[4] = 0.2 μM sample, after 5-days incubation
[5] = 0.2 μM sample, on 0-day incubation, mean ± SD of eight wells
[6] = 2 μM sample, after 3-days incubation
[7] = 2 μM sample, after 5-days incubation
[8] = 2 μM sample, on 0-day incubation
[9] = 20 μM sample, after 3-days incubation
[10] = 20 μM sample, after 5-days incubation
[11] = 20 μM sample, on 0-day incubation

| Compound | Antioxidant Activity (%) from β-carotene Fading Test (β-carotene fading test) | antioxidant activity (in words) (β-carotene fading test) | Relative Value of Living Cells [1, 3] | Relative Value of Living Cells [1, 4] | Relative Value of Living Cells [1, 5] | Relative Value of Living Cells [1, 6] | Relative Value of Living Cells [1, 7] | Relative Value of Living Cells [1, 8] | Relative Value of Living Cells [1, 9] | Relative Value of Living Cells [1, 10] | Relative Value of Living Cells [1, 11] | inhibiting effect on the proliferation of breast cancer cells (in words) [1] | Radical Scavenging Activity (%) from DPPH Radical Scavenging Activity Test [2] | radical scavenging activity (in words) ([2]; comparison from Table 1) |
| --- | --- | --- | --- | --- | --- | --- | --- | --- | --- | --- | --- | --- | --- | --- |
| CC(C)=CCC/C(C)=C/Cc1c([C@@H]2CC(=O)c3c(cc(O)c(CC=C(C)C)c3O)O2)ccc(O)c1O [Compound 4, 5,7,3′,4′-tetrahydroxy-6-(3′″,3′″-dimethylallyl)-2′-C-geranylflavanone] | 80.06 ± 0.29% | about the same high antioxidant activity as that of each of BHT, α-tocopherol, and eriodictyol | 2.97 ± 0.27 | 6.30 ± 0.54 | 0.99 ± 0.04 | 3.03 ± 0.30 | 6.41 ± 0.53 | 1.00 ± 0.07 | 1.27 ± 0.20 | 1.01 ± 0.12 | 0.98 ± 0.04 | cytotoxic effect upon breast cancer cells | 50.79 ± 0.08% |  |
| CC(C)=CCC/C(C)=C/Cc1c(O)cc2c(c1O)C(=O)C[C@@H](c1ccc(O)c(O)c1)O2 [Compound 3, 5,7,3′,4′-tetrahydroxy-6-C-geranylflavanone] | 60.62 ± 1.16% |  | 2.94 ± 0.20 | 6.99 ± 0.66 | 0.99 ± 0.05 | 2.53 ± 0.30 | 5.38 ± 0.44 | 1.01 ± 0.05 | 1.21 ± 0.22 | 0.89 ± 0.12 | 0.96 ± 0.04 | cytotoxic effect upon breast cancer cells | 64.00 ± 0.58% | highest radical scavenging activity |
| CC(C)=CCC/C(C)=C/Cc1cc([C@@H]2CC(=O)c3c(O)cc(O)cc3O2)cc(O)c1O [Compound 2, 5,7,3′,4′-tetrahydroxy-5′-C-geranylflavanone] | 78.07 ± 1.79% | about the same high antioxidant activity as that of each of BHT, α-tocopherol, and eriodictyol | 2.97 ± 0.37 | 6.83 ± 0.58 | 0.95 ± 0.04 | 2.68 ± 0.19 | 6.59 ± 0.50 | 0.99 ± 0.04 | 2.59 ± 0.21 | 5.59 ± 1.01 | 1.00 ± 0.07 |  | 49.86 ± 0.96% |  |
| CC(C)=CCC/C(C)=C/Cc1c([C@@H]2CC(=O)c3c(O)cc(O)cc3O2)ccc(O)c1O [Compound 1, 5,7,3′,4′-tetrahydroxy-2′-C-geranylflavanone] | 85.54 ± 2.24% | about the same high antioxidant activity as that of each of BHT, α-tocopherol, and eriodictyol | 2.86 ± 0.14 | 7.26 ± 0.48 | 0.98 ± 0.04 | 2.58 ± 0.11 | 6.01 ± 0.25 | 0.99 ± 0.05 | 2.22 ± 0.19 | 4.17 ± 0.50 | 1.01 ± 0.05 |  | 55.35 ± 0.43% |  |
